Assay results published in PubChem BioAssay (NCI).
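How tested: cells in 96-well plates exposed to compound for 48 hours at five concentrations. At the GI50, growth is halved. TGI marks complete inhibition of growth.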

Columns and labels:
Experiment in all cases: NCI-60 cell line screen, 48 h
A549 NSCLC = tested on: A549 NSCLC
BT-549 breast = tested on: BT-549 breast
OVCAR-3 ovarian = tested on: OVCAR-3 ovarian
IGROV1 ovarian = tested on: IGROV1 ovarian
786-0 renal = tested on: 786-0 renal
OVCAR-4 ovarian = tested on: OVCAR-4 ovarian
SF-295 CNS = tested on: SF-295 CNS
KM12 colon = tested on: KM12 colon
SW-620 colon = tested on: SW-620 colon
MDA-MB-231 breast = tested on: MDA-MB-231 breast
HOP-62 NSCLC = tested on: HOP-62 NSCLC
HCT-15 colon = tested on: HCT-15 colon
T-47D breast = tested on: T-47D breast
NCI-H460 lung = tested on: NCI-H460 lung
NCI/ADR-RES ovarian = tested on: NCI/ADR-RES ovarian
M14 melanoma = tested on: M14 melanoma
SF-268 CNS = tested on: SF-268 CNS
HT29 colon = tested on: HT29 colon
OVCAR-8 ovarian = tested on: OVCAR-8 ovarian
K-562 leukemia = tested on: K-562 leukemia
ACHN renal = tested on: ACHN renal
MALME-3M melanoma = tested on: MALME-3M melanoma
A498 renal = tested on: A498 renal
SK-OV-3 ovarian = tested on: SK-OV-3 ovarian
NCI-H23 lung = tested on: NCI-H23 lung
COLO 205 colon = tested on: COLO 205 colon
CAKI-1 renal = tested on: CAKI-1 renal
PC-3 prostate = tested on: PC-3 prostate
SN12C renal = tested on: SN12C renal
SF-539 CNS = tested on: SF-539 CNS
OVCAR-5 ovarian = tested on: OVCAR-5 ovarian
HL-60(TB) leukemia = tested on: HL-60(TB) leukemia
MOLT-4 leukemia = tested on: MOLT-4 leukemia
U251 CNS = tested on: U251 CNS
SNB-19 CNS = tested on: SNB-19 CNS
TK-10 renal = tested on: TK-10 renal
UACC-62 melanoma = tested on: UACC-62 melanoma
HCT-116 colon = tested on: HCT-116 colon
UO-31 renal = tested on: UO-31 renal
SNB-75 CNS = tested on: SNB-75 CNS
SK-MEL-2 melanoma = tested on: SK-MEL-2 melanoma
SR leukemia = tested on: SR leukemia
LOX IMVI melanoma = tested on: LOX IMVI melanoma
CCRF-CEM leukemia = tested on: CCRF-CEM leukemia
SK-MEL-28 melanoma = tested on: SK-MEL-28 melanoma
NCI-H226 lung = tested on: NCI-H226 lung
DU-145 prostate = tested on: DU-145 prostate
MCF7 breast = tested on: MCF7 breast
RPMI-8226 leukemia = tested on: RPMI-8226 leukemia
UACC-257 melanoma = tested on: UACC-257 melanoma
MDA-MB-435 = tested on: MDA-MB-435
HCC-2998 colon = tested on: HCC-2998 colon
RXF 393 renal = tested on: RXF 393 renal
EKVX NSCLC = tested on: EKVX NSCLC
SK-MEL-5 melanoma = tested on: SK-MEL-5 melanoma
HS 578T breast = tested on: HS 578T breast
HOP-92 NSCLC = tested on: HOP-92 NSCLC

SMILES: CC[N+](CCCCCCCCCC[N+](CC)(c1ccccn1)c1ccccn1)(c1ccccn1)c1ccccn1
- GI50 (A549 NSCLC): 0.456 µM
- TGI (A549 NSCLC): > 100 µM
- GI50 (BT-549 breast): 0.973 µM
- TGI (BT-549 breast): 88.9 µM
- GI50 (OVCAR-3 ovarian): 1.09 µM
- TGI (OVCAR-3 ovarian): 10.1 µM
- GI50 (IGROV1 ovarian): 2.07 µM
- TGI (IGROV1 ovarian): 11.7 µM
- GI50 (786-0 renal): 3.76 µM
- TGI (786-0 renal): 66.2 µM
- GI50 (OVCAR-4 ovarian): 1.01 µM
- TGI (OVCAR-4 ovarian): > 100 µM
- GI50 (SF-295 CNS): 0.668 µM
- TGI (SF-295 CNS): 2.29 µM
- GI50 (KM12 colon): 0.739 µM
- TGI (KM12 colon): 8 µM
- GI50 (SW-620 colon): 2.14 µM
- TGI (SW-620 colon): 15.6 µM
- GI50 (MDA-MB-231 breast): 2.24 µM
- TGI (MDA-MB-231 breast): 13.8 µM
- GI50 (HOP-62 NSCLC): 2.15 µM
- TGI (HOP-62 NSCLC): 9.15 µM
- GI50 (HCT-15 colon): 3.2 µM
- TGI (HCT-15 colon): 18.8 µM
- GI50 (T-47D breast): 0.295 µM
- TGI (T-47D breast): 1.7 µM
- GI50 (NCI-H460 lung): 0.625 µM
- TGI (NCI-H460 lung): 10.3 µM
- GI50 (NCI/ADR-RES ovarian): 5.28 µM
- TGI (NCI/ADR-RES ovarian): 53.8 µM
- GI50 (M14 melanoma): 2.57 µM
- TGI (M14 melanoma): 30.5 µM
- GI50 (SF-268 CNS): 1.02 µM
- TGI (SF-268 CNS): 19.5 µM
- GI50 (HT29 colon): 0.764 µM
- TGI (HT29 colon): 12.1 µM
- GI50 (OVCAR-8 ovarian): 2.11 µM
- TGI (OVCAR-8 ovarian): 57.5 µM
- GI50 (K-562 leukemia): 0.49 µM
- TGI (K-562 leukemia): 16 µM
- GI50 (ACHN renal): 2.8 µM
- TGI (ACHN renal): 12.9 µM
- GI50 (MALME-3M melanoma): 1.52 µM
- TGI (MALME-3M melanoma): 17.7 µM
- GI50 (A498 renal): 1.02 µM
- TGI (A498 renal): 5.58 µM
- GI50 (SK-OV-3 ovarian): 2.22 µM
- TGI (SK-OV-3 ovarian): 9.28 µM
- GI50 (NCI-H23 lung): 0.696 µM
- TGI (NCI-H23 lung): 17.9 µM
- GI50 (COLO 205 colon): 1.78 µM
- TGI (COLO 205 colon): 11.6 µM
- GI50 (CAKI-1 renal): 2.61 µM
- TGI (CAKI-1 renal): 9.92 µM
- GI50 (PC-3 prostate): 0.459 µM
- TGI (PC-3 prostate): 11.2 µM
- GI50 (SN12C renal): 0.431 µM
- TGI (SN12C renal): 11 µM
- GI50 (SF-539 CNS): 1.72 µM
- TGI (SF-539 CNS): 14.1 µM
- GI50 (OVCAR-5 ovarian): 1.86 µM
- TGI (OVCAR-5 ovarian): 9.65 µM
- GI50 (HL-60(TB) leukemia): 0.554 µM
- TGI (HL-60(TB) leukemia): 2.93 µM
- GI50 (MOLT-4 leukemia): 2.28 µM
- TGI (MOLT-4 leukemia): 13.2 µM
- GI50 (U251 CNS): 0.526 µM
- TGI (U251 CNS): 24 µM
- GI50 (SNB-19 CNS): 0.761 µM
- TGI (SNB-19 CNS): 27.3 µM
- GI50 (TK-10 renal): 3.65 µM
- TGI (TK-10 renal): 24.5 µM
- GI50 (UACC-62 melanoma): 0.915 µM
- TGI (UACC-62 melanoma): 7.34 µM
- GI50 (HCT-116 colon): 0.851 µM
- TGI (HCT-116 colon): > 100 µM
- GI50 (UO-31 renal): 2.09 µM
- TGI (UO-31 renal): 12.6 µM
- GI50 (SNB-75 CNS): 1.25 µM
- TGI (SNB-75 CNS): 32.2 µM
- GI50 (SK-MEL-2 melanoma): 1.88 µM
- TGI (SK-MEL-2 melanoma): 5.82 µM
- GI50 (SR leukemia): 1.36 µM
- TGI (SR leukemia): 22.1 µM
- GI50 (LOX IMVI melanoma): 1.5 µM
- TGI (LOX IMVI melanoma): 4.29 µM
- GI50 (CCRF-CEM leukemia): 1.05 µM
- TGI (CCRF-CEM leukemia): 8.78 µM
- GI50 (SK-MEL-28 melanoma): 2.48 µM
- TGI (SK-MEL-28 melanoma): 15.2 µM
- GI50 (NCI-H226 lung): 2.04 µM
- TGI (NCI-H226 lung): 22.3 µM
- GI50 (DU-145 prostate): 0.858 µM
- TGI (DU-145 prostate): 12.4 µM
- GI50 (MCF7 breast): 0.437 µM
- TGI (MCF7 breast): 4.26 µM
- GI50 (RPMI-8226 leukemia): 0.267 µM
- TGI (RPMI-8226 leukemia): 3.57 µM
- GI50 (UACC-257 melanoma): 0.745 µM
- TGI (UACC-257 melanoma): 12.9 µM
- GI50 (MDA-MB-435): 0.609 µM
- TGI (MDA-MB-435): 4.19 µM
- GI50 (HCC-2998 colon): 1.95 µM
- TGI (HCC-2998 colon): 27.2 µM
- GI50 (RXF 393 renal): 2.5 µM
- TGI (RXF 393 renal): 21.2 µM

SMILES: COc1cc(-c2nc3ccc(C)cc3[nH]2)ccc1OCC(=O)N=Nc1c(O)[nH]c2ccccc12
- GI50 (BT-549 breast): 2.26 µM
- TGI (BT-549 breast): 6.56 µM
- GI50 (EKVX NSCLC): 12.7 µM
- TGI (EKVX NSCLC): > 100 µM
- GI50 (OVCAR-3 ovarian): 1.71 µM
- TGI (OVCAR-3 ovarian): 3.21 µM
- GI50 (IGROV1 ovarian): 1.73 µM
- TGI (IGROV1 ovarian): 3.48 µM
- GI50 (786-0 renal): 1.76 µM
- TGI (786-0 renal): 3.24 µM
- GI50 (OVCAR-4 ovarian): 1.75 µM
- TGI (OVCAR-4 ovarian): 3.25 µM
- GI50 (SF-295 CNS): 1.94 µM
- TGI (SF-295 CNS): 3.82 µM
- GI50 (KM12 colon): 1.83 µM
- TGI (KM12 colon): 3.54 µM
- GI50 (SW-620 colon): 0.769 µM
- TGI (SW-620 colon): 2.37 µM
- GI50 (MDA-MB-231 breast): 1.64 µM
- TGI (MDA-MB-231 breast): 3.1 µM
- GI50 (HCT-15 colon): 4.18 µM
- TGI (HCT-15 colon): > 100 µM
- GI50 (NCI-H460 lung): 1.85 µM
- TGI (NCI-H460 lung): 3.73 µM
- GI50 (NCI/ADR-RES ovarian): > 100 µM
- TGI (NCI/ADR-RES ovarian): > 100 µM
- GI50 (M14 melanoma): 1.84 µM
- TGI (M14 melanoma): 3.56 µM
- GI50 (ACHN renal): 3.39 µM
- TGI (ACHN renal): 13.6 µM
- GI50 (SK-MEL-5 melanoma): 1.82 µM
- TGI (SK-MEL-5 melanoma): 3.52 µM
- GI50 (HS 578T breast): 2 µM
- TGI (HS 578T breast): 4.77 µM
- GI50 (MALME-3M melanoma): 1.68 µM
- TGI (MALME-3M melanoma): 3.18 µM
- GI50 (A498 renal): 2.36 µM
- TGI (A498 renal): 7.46 µM
- GI50 (NCI-H23 lung): 1.81 µM
- TGI (NCI-H23 lung): 3.48 µM
- GI50 (CAKI-1 renal): 1.66 µM
- TGI (CAKI-1 renal): 3.07 µM
- GI50 (SN12C renal): 1.68 µM
- TGI (SN12C renal): 3.19 µM
- GI50 (SF-539 CNS): 1.62 µM
- TGI (SF-539 CNS): 3.01 µM
- GI50 (OVCAR-5 ovarian): 1.83 µM
- TGI (OVCAR-5 ovarian): 4.19 µM
- GI50 (SNB-19 CNS): 1.83 µM
- TGI (SNB-19 CNS): 3.51 µM
- GI50 (TK-10 renal): 3.21 µM
- TGI (TK-10 renal): 11.1 µM
- GI50 (UACC-62 melanoma): 1.76 µM
- TGI (UACC-62 melanoma): 3.31 µM
- GI50 (HCT-116 colon): 0.442 µM
- TGI (HCT-116 colon): 1.66 µM
- GI50 (UO-31 renal): 12.5 µM
- TGI (UO-31 renal): 96.4 µM
- GI50 (SNB-75 CNS): 1.07 µM
- TGI (SNB-75 CNS): 2.91 µM
- GI50 (LOX IMVI melanoma): 0.339 µM
- TGI (LOX IMVI melanoma): 1.29 µM
- GI50 (SK-MEL-28 melanoma): 1.77 µM
- TGI (SK-MEL-28 melanoma): 3.16 µM
- GI50 (HOP-92 NSCLC): 1.56 µM
- TGI (HOP-92 NSCLC): 3.28 µM
- GI50 (DU-145 prostate): 2.05 µM
- TGI (DU-145 prostate): 4.39 µM
- GI50 (MDA-MB-435): 1.63 µM
- TGI (MDA-MB-435): 3 µM
- GI50 (HCC-2998 colon): 1.86 µM
- TGI (HCC-2998 colon): 3.31 µM
- GI50 (RXF 393 renal): 1.65 µM
- TGI (RXF 393 renal): 3.17 µM
